{"source": "paper PMC10977697", "about": "(PLOS ONE, 2024)", "key": {"[1]": {"tested_on": "CD16A", "test": "Spot phage ELISA, CD16A", "assay_type": "binding, human", "conditions": "spot phage ELISA signal-to-noise on CD16A"}, "[2]": {"tested_on": "EpCAM", "test": "Spot phage ELISA, EpCAM", "assay_type": "binding, human", "conditions": "spot phage ELISA signal-to-noise on EpCAM"}}, "note": "Where no end group is shown, it is not given here.", "data": [{"sequence": "GCADTPWKGKCKQDSDCLAGCVCGPNGFCG (disulfide (positions not given here)) [CD16A EETI-II 20]", "values": [{"measurement": "S/N", "setting": "[1]", "value": 15.6}]}, {"sequence": "GCADTPWQGRCKQDSDCLAGCVCGPNGFCG (disulfide (positions not given here)) [CD16A EETI-II 21]", "values": [{"measurement": "S/N", "setting": "[1]", "value": 25.5}]}, {"sequence": "GCAKDPWGQPMSCKQDSDCLAGCVCGPNGFC (disulfide (positions not given here)) [CD16A EETI-II 27]", "values": [{"measurement": "S/N", "setting": "[1]", "value": 20.7}]}, {"sequence": "GCAVDPWGKQMTCKQDSDCLAGCVCGPNGFC (disulfide (positions not given here)) [CD16A EETI-II 33]", "values": [{"measurement": "S/N", "setting": "[1]", "value": 19.5}]}, {"sequence": "GPTQSHYGQCGGSGYWGAIACSGTTCQMVKLPYSQCLPGAS (disulfide (positions not given here)) [EpCAM CBD 69]", "values": [{"measurement": "S/N", "setting": "[2]", "value": 8.5}]}, {"sequence": "GPTQSHYGQCGGSGYYGAIMCSGTTCQYMRAMQSQCLPGAS (disulfide (positions not given here)) [EpCAM CBD 79]", "values": [{"measurement": "S/N", "setting": "[2]", "value": 7.4}]}, {"sequence": "GPTQSHYGQCGGSGYYGVIVCSGTTCQYVNRKPSQCLPGAS (disulfide (positions not given here)) [EpCAM CBD 36]", "values": [{"measurement": "S/N", "setting": "[2]", "value": 13.1}]}, {"sequence": "GPTQSHYGQCGGSGYYGYIVCSGTTCQFKPSGRSQCLPGAS (disulfide (positions not given here)) [EpCAM CBD 81]", "values": [{"measurement": "S/N", "setting": "[2]", "value": 7.0}]}, {"sequence": "GPTQSHYGQCGGTGYFGMMRCSGTTCQHVFLERSQCLPGAS (disulfide (positions not given here)) [EpCAM CBD 53]", "values": [{"measurement": "S/N", "setting": "[2]", "value": 9.5}]}, {"sequence": "GPTQSHYGQCGGTGYHGVMLCSGTTCQLWAHPLSQCLPGAS (disulfide (positions not given here)) [EpCAM CBD 11]", "values": [{"measurement": "S/N", "setting": "[2]", "value": 20.6}]}, {"sequence": "GPTQSHYGQCGGTGYPGAMVCSGTTCQLFELXVSQCLPGAS (disulfide) [EpCAM CBD 74]", "values": [{"measurement": "S/N", "setting": "[2]", "value": 7.8}]}, {"sequence": "GPTQSHYGQCGGTGYVGAHVCSGTTCQFVYRDFSQCLPGAS (disulfide (positions not given here)) [EpCAM CBD 48]", "values": [{"measurement": "S/N", "setting": "[2]", "value": 10.5}]}, {"sequence": "GPTQSHYGQCGGTGYVGMFKCSGTTCQYVYSSASQCLPGAS (disulfide (positions not given here)) [EpCAM CBD 67]", "values": [{"measurement": "S/N", "setting": "[2]", "value": 8.5}]}, {"sequence": "GPTQSHYGQCGGTGYVGYTRCSGTTCQTVPAVMSQCLPGAS (disulfide (positions not given here)) [EpCAM CBD 16]", "values": [{"measurement": "S/N", "setting": "[2]", "value": 18.9}]}, {"sequence": "GPTQSHYGQCGGVGYHGAIQCSGTTCQEVKMTRSQCLPGAS (disulfide (positions not given here)) [EpCAM CBD 3]", "values": [{"measurement": "S/N", "setting": "[2]", "value": 23.5}]}, {"sequence": "GPTQSHYGQCGGVGYHGMIVCSGTTCQWKPSVYSQCLPDAS (disulfide (positions not given here)) [EpCAM CBD 76]", "values": [{"measurement": "S/N", "setting": "[2]", "value": 7.6}]}, {"sequence": "GPTQSHYGQCGGVGYVGSILCSGTTCQFTKVRTSQCLPGAS (disulfide (positions not given here)) [EpCAM CBD 50]", "values": [{"measurement": "S/N", "setting": "[2]", "value": 9.9}]}, {"sequence": "GPTQSHYGQCGGWGYQGWAICSGTTCQAQLSHKSQCLPGAS (disulfide (positions not given here)) [EpCAM CBD 83]", "values": [{"measurement": "S/N", "setting": "[2]", "value": 6.8}]}, {"sequence": "GPTQSHYGQCGGXGYNGXIVCSGTTCQYXRKSKSQCLPGAS (disulfide) [EpCAM CBD 61]", "values": [{"measurement": "S/N", "setting": "[2]", "value": 8.8}]}, {"sequence": "GPTQSHYGQCGGYGYPGLACSGTTCQYTYYMRSQCLPGAS (disulfide (positions not given here)) [EpCAM CBD 71]", "values": [{"measurement": "S/N", "setting": "[2]", "value": 8.3}]}, {"sequence": "GPTQSHYGQCGGYGYQGMMMCSGTTCQYVRHKVSQCLPGAS (disulfide (positions not given here)) [EpCAM CBD 30]", "values": [{"measurement": "S/N", "setting": "[2]", "value": 15.6}]}, {"sequence": "GPTQSHYGQCGGYVGAIMCSGTTCQFQHVKQSQCLPGAS (disulfide (positions not given here)) [EpCAM CBD 38]", "values": [{"measurement": "S/N", "setting": "[2]", "value": 12.9}]}, {"sequence": "GPTQSIYGVCGGIGYVGGRYCSGTTCQIPEKYKSQCLPGAS (disulfide (positions not given here)) [EpCAM CBD 45]", "values": [{"measurement": "S/N", "setting": "[2]", "value": 11.1}]}, {"sequence": "GPTQSLPGFCGGIGYVGGRYCSGTTCQLPEKLKSQCLPGAS (disulfide (positions not given here)) [EpCAM CBD 1]", "values": [{"measurement": "S/N", "setting": "[2]", "value": 26.7}]}, {"sequence": "GPTQSVIGPCGGIGYVGGRYCSGTTCQMPTSYRSQCLPGAS (disulfide (positions not given here)) [EpCAM CBD 35]", "values": [{"measurement": "S/N", "setting": "[2]", "value": 14.4}]}]}
